Reference: patent US20250011299A1, “PYRIDAZINYL AMINO DERIVATIVES AS ALK5 INHIBITORS” (CHIESI FARMACEUTICI S.P.A., priority 2021, published 2025)

The compounds below were run against T1, human ALK5 (Homo sapiens, UniProt P36897) (assay: ADP-GLO Kinases assay of ALK5 enzymatic activity). Details: purified recombinant human ALK5, TGFβ1 peptide substrate, pIC50 converted to pKi by Cheng-Prusoff, high ATP protocol (15 μM) for very potent compounds, 25° C.
T1 construct: human ALK5 (recombinant TGF β1 N-term GST-tagged, 80-end); GST (N); purchased
T1 sequence (P36897 80-503 limits assumed): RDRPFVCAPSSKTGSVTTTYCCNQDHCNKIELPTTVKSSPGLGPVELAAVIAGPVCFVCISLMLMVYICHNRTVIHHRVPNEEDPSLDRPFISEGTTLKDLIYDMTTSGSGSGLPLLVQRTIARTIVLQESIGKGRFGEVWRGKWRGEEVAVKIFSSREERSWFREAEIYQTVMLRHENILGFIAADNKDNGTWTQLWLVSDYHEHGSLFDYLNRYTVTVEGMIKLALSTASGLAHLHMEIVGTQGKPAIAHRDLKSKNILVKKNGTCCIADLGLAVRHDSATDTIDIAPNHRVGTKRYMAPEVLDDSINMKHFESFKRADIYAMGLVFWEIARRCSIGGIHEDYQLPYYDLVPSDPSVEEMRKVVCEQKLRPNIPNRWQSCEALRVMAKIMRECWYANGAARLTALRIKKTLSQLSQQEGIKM
Format: biochemical
Experimental: The enzymatic activity of compounds of the present invention was monitored measuring the formation of ADP using the ADP-GLO Kinases assay. Following the incubation of the purified enzyme, a substrate and ATP, the produced ADP was converted into ATP, which in turn was converted into light by Ultra-Glo Luciferase. The luminescent signal positively correlated with ADP amount and kinase activity. […] Compound and ALK5 kinase were mixed and incubated for 15 mins. […] After an incubation of 120 min, the reaction was stopped, and ADP production detected with ADP-Glo kit according to manufacturer's indications. […] After an incubation of 60 min, the kinase reaction was stopped, and ADP production detected with ADP-Glo kit according to manufacturer's indications. All reaction and incubation steps were performed at 25° C. and the assays were performed in 384-well format and validated using a selection of reference compounds tested in 11-point concentration-response curve. […] Results were expressed as pIC50 (negative logarithm of IC50) and subsequently converted to pKi (negative logarithm of […]) using the Cheng-Prusoff equation. The higher the value of pKi, the greater the inhibition of ALK5 activity.

| Ki | SMILES |
| --- | --- |
| ≤ 0.1 nM | CN1CCN(CCOc2ccc3c(Nc4cc(-c5cc(Cl)ccc5F)nnc4OCC(F)F)ccnc3c2)CC1 [Example 3, N-[6-(5-chloro-2-fluorophenyl)-3-(2,2-difluoroethoxy)pyridazin-4-yl]-7-[2-(4-methylpiperazin-1-yl)ethoxy]quinolin-4-amine] |
| 0.126 to 0.316 nM | CSCCCOc1nnc(-c2cc(Cl)ccc2F)cc1Nc1ccnc(NC(=O)CCN2CCN(C)CC2)c1 [Example 4, N-(4-{[6-(5-chloro-2-fluorophenyl)-3-[3-(methylsulfanyl)propoxy]pyridazin-4-yl]amino}pyridin-2-yl)-3-(4-methylpiperazin-1-yl)propanamide] |
| 0.126 to 0.316 nM | CN1CCN(CCOc2ccc3c(Nc4cc(-c5cc(Cl)ccc5F)nnc4OCCN)ccnc3c2)CC1 [Example 5, N-[3-(2-aminoethoxy)-6-(5-chloro-2-fluorophenyl)pyridazin-4-yl]-7-[2-(4-methylpiperazin-1-yl)ethoxy]quinolin-4-amine] |
| ≤ 0.1 nM | CN1CCN(CCOc2ccc3c(Nc4cc(-c5cc(Cl)ccc5F)nnc4OCCNS(C)(=O)=O)ccnc3c2)CC1 [Example 6, N-(2-{[6-(5-chloro-2-fluorophenyl)-4-({7-[2-(4-methylpiperazin-1-yl)ethoxy]quinolin-4-yl}amino)pyridazin-3-yl]oxy}ethyl)methanesulfonamide] |
| ≤ 0.1 nM | CN1CCN(CCC(=O)Nc2cc(Nc3cc(-c4cc(Cl)ccc4F)nnc3OCCCS(C)(=O)=O)ccn2)CC1 [Example 7, N-(4-{[6-(5-chloro-2-fluorophenyl)-3-(3-methanesulfonylpropoxy)pyridazin-4-yl]amino}pyridin-2-yl)-3-(4-methylpiperazin-1-yl)propanamide] |
| 0.126 to 0.316 nM | CN1CCN(CCC(=O)Nc2cc(Nc3cc(-c4cc(Cl)ccc4F)nnc3OCCN)ccn2)CC1 [Example 8, N-(4-{[3-(2-aminoethoxy)-6-(5-chloro-2-fluorophenyl)pyridazin-4-yl]amino}pyridin-2-yl)-3-(4-methylpiperazin-1-yl)propanamide] |
| ≤ 0.1 nM | CN1CCN(CCC(=O)Nc2cc(Nc3cc(-c4cc(Cl)ccc4F)nnc3OCCNS(C)(=O)=O)ccn2)CC1 [Example 9, N-(4-{[6-(5-chloro-2-fluorophenyl)-3-(2-methanesulfonamidoethoxy)pyridazin-4-yl]amino}pyridin-2-yl)-3-(4-methylpiperazin-1-yl)propanamide] |
| 0.398 to 3.16 nM | COC(=O)c1cc2c(Nc3cc(-c4cc(Cl)ccc4F)nnc3OCCCN(C)C)ccnc2[nH]1 [Example 10, methyl 4-{[6-(5-chloro-2-fluorophenyl)-3-[3-(dimethylamino)propoxy]pyridazin-4-yl]amino}-1H-pyrrolo[2,3-b]pyridine-2-carboxylate] |
| 0.398 to 3.16 nM | COC(=O)c1cc2c(Nc3cc(-c4cc(Cl)ccc4F)nnc3OCCC[N+](C)(C)C)ccnc2[nH]1 [Example 11, (3-{[6-(5-chloro-2-fluorophenyl)-4-{[2-(methoxycarbonyl)-1H-pyrrolo[2,3-b]pyridin-4-yl]amino}pyridazin-3-yl]oxy}propyl)trimethylazanium chloride] |
| 0.126 to 0.316 nM | COC(=O)C1CN(CC(=O)Nc2cc(Nc3cc(-c4cc(Cl)ccc4F)nnc3OCCN(C)C)ccn2)CCN1C (centres unmarked) [Example 12, methyl 4-{[(4-{[6-(5-chloro-2-fluorophenyl)-3-[2-(dimethylamino)ethoxy]pyridazin-4-yl]amino}pyridin-2-yl)carbamoyl]methyl}-1-methylpiperazine-2-carboxylate] |
| ≤ 0.1 nM | COc1nnc(-c2cc(Cl)ccc2F)cc1Nc1ccnc(NC(=O)CCN2CCN(CC(F)(F)F)CC2)c1 [Example 13, N-(4-{[6-(5-chloro-2-fluorophenyl)-3-methoxypyridazin-4-yl]amino}pyridin-2-yl)-3-[4-(2,2,2-trifluoroethyl)piperazin-1-yl]propanamide] |
| ≤ 0.1 nM | COc1nnc(-c2cc(Cl)ccc2F)cc1Nc1ccnc(NC(=O)CN2CCN(CC(F)(F)F)CC2)c1 [Example 14, N-(4-{[6-(5-chloro-2-fluorophenyl)-3-methoxypyridazin-4-yl]amino}pyridin-2-yl)-2-[4-(2,2,2-trifluoroethyl)piperazin-1-yl]acetamide] |
| 0.126 to 0.316 nM | COC(=O)COc1nnc(-c2cc(Cl)ccc2F)cc1Nc1ccnc(NC(=O)CCN2CCN(C)CC2)c1 [Example 15, methyl 2-{[6-(5-chloro-2-fluorophenyl)-4-({2-[3-(4-methylpiperazin-1-yl)propanamido]pyridin-4-yl}amino)pyridazin-3-yl]oxy}acetate] |
| ≤ 0.1 nM | CSc1nnc(-c2cc(Cl)ccc2F)cc1Nc1ccnc(NC(=O)CCN2CCN(C)CC2)c1 [Example 16, N-(4-{[6-(5-chloro-2-fluorophenyl)-3-(methylsulfanyl)pyridazin-4-yl]amino}pyridin-2-yl)-3-(4-methylpiperazin-1-yl)propanamide] |
| 0.126 to 0.316 nM | CN1CCN(CCC(=O)Nc2cc(Nc3cc(-c4cc(Cl)ccc4F)nnc3[S+](C)[O-])ccn2)CC1 (centres unmarked) [Example 17, N-(4-{[6-(5-chloro-2-fluorophenyl)-3-methanesulfinylpyridazin-4-yl]amino}pyridin-2-yl)-3-(4-methylpiperazin-1-yl)propanamide] |
| 0.126 to 0.316 nM | CN1CCN(CCC(=O)Nc2cc(Nc3cc(-c4cc(Cl)ccc4F)nnc3S(C)(=O)=O)ccn2)CC1 [Example 18, N-(4-{[6-(5-chloro-2-fluorophenyl)-3-methanesulfonylpyridazin-4-yl]amino}pyridin-2-yl)-3-(4-methylpiperazin-1-yl)propanamide] |
| 0.398 to 3.16 nM | CN1CCN(CCC(=O)Nc2cc(Nc3cc(-c4cc(Cl)ccc4F)nnc3S(C)(=N)=O)ccn2)CC1 (centres unmarked) [Example 19, N-(4-{[6-(5-chloro-2-fluorophenyl)-3-[imino(methyl)oxo-λ^6-sulfanyl]pyridazin-4-yl]amino}pyridin-2-yl)-3-(4-methylpiperazin-1-yl)propanamide] |
| ≤ 0.1 nM | CSc1nnc(-c2cc(Cl)ccc2F)cc1Nc1ccnc(NC(=O)CCN2CCN(CCN)CC2)c1 [Example 20, 3-[4-(2-aminoethyl)piperazin-1-yl]-N-(4-{[6-(5-chloro-2-fluorophenyl)-3-(methylsulfanyl)pyridazin-4-yl]amino}pyridin-2-yl)propanamide] |
| ≤ 0.1 nM | COC(=O)NCCN1CCN(CCC(=O)Nc2cc(Nc3cc(-c4cc(Cl)ccc4F)nnc3SC)ccn2)CC1 [Example 21, methyl N-[2-(4-{2-[(4-{[6-(5-chloro-2-fluorophenyl)-3-(methylsulfanyl)pyridazin-4-yl]amino}pyridin-2-yl)carbamoyl]ethyl}piperazin-1-yl)ethyl]carbamate] |
| 0.126 to 0.316 nM | CN1CCN(CCCC(=O)Nc2cc(Nc3cc(-c4cc(Cl)ccc4F)nnc3SCCO)ccn2)CC1 [Example 23, N-(4-{[6-(5-chloro-2-fluorophenyl)-3-[(2-hydroxyethyl)sulfanyl]pyridazin-4-yl]amino}pyridin-2-yl)-4-(4-methylpiperazin-1-yl)butanamide] |
| ≤ 0.1 nM | CN1CC2(C1)CN(CC(=O)Nc1cc(Nc3cc(-c4cc(Cl)ccc4F)nnc3SCCO)ccn1)C2 [Example 24, N-(4-{[6-(5-chloro-2-fluorophenyl)-3-[(2-hydroxyethyl)sulfanyl]pyridazin-4-yl]amino}pyridin-2-yl)-2-{6-methyl-2,6-diazaspiro[3.3]heptan-2-yl}acetamide] |
| ≤ 0.1 nM | CN1CC2CC1CN2CC(=O)Nc1cc(Nc2cc(-c3cc(Cl)ccc3F)nnc2SCCO)ccn1 (centres unmarked) [Example 25, N-(4-{[6-(5-chloro-2-fluorophenyl)-3-[(2-hydroxyethyl)sulfanyl]pyridazin-4-yl]amino}pyridin-2-yl)-2-{5-methyl-2,5-diazabicyclo[2.2.1]heptan-2-yl}acetamide] |
| ≤ 0.1 nM | CN1CCC2(CCN(C(=O)Nc3cc(Nc4cc(-c5cc(Cl)ccc5F)nnc4SCCO)ccn3)CC2)C1 [Example 26, N-(4-{[6-(5-chloro-2-fluorophenyl)-3-[(2-hydroxyethyl)sulfanyl]pyridazin-4-yl]amino}pyridin-2-yl)-2-methyl-2,8-diazaspiro[4.5]decane-8-carboxamide] |
| ≤ 0.1 nM | CN1CCCN(CC(=O)Nc2cc(Nc3cc(-c4cc(Cl)ccc4F)nnc3SCCO)ccn2)CC1 [Example 27, N-(4-{[6-(5-chloro-2-fluorophenyl)-3-[(2-hydroxyethyl)sulfanyl]pyridazin-4-yl]amino}pyridin-2-yl)-2-(4-methyl-1,4-diazepan-1-yl)acetamide] |
| ≤ 0.1 nM | CN1CCN(CCC(=O)Nc2cc(Nc3cc(-c4cc(Cl)ccc4F)nnc3SCCCO)ccn2)CC1 [Example 28, N-(4-{[6-(5-chloro-2-fluorophenyl)-3-[(3-hydroxypropyl)sulfanyl]pyridazin-4-yl]amino}pyridin-2-yl)-3-(4-methylpiperazin-1-yl)propanamide] |
| ≤ 0.1 nM | CNc1nnc(-c2cc(Cl)ccc2F)cc1Nc1ccnc(NC(=O)CCN2CCN(C)CC2)c1 [Example 29] |
